Data: patent US12447154B2, “Use of pyrrolopyrimidine compound for treating hemophagocytic syndrome” (CHIA TAI TIANQING PHARMACEUTICAL GROUP CO., LTD., priority 2020, dated 2025)

Test system: patient diagnosed with hemophagocytic syndrome
Assay: Clinical protocol for hemophagocytic syndrome (patient cases)
Assay type: in vivo, human
Method: Example 1. Clinical Protocol for Hemophagocytic Syndrome
Method of administration: orally administered once before breakfast in the morning and once after 12 h, with 28 consecutive days of administration as one treatment cycle.
Drug: the compound of formula I in 5 mg or 20 mg tablets, the compound of formula I being shown as its stereoisomer, a compound of formula II
[drawing 5] 1.2. Inclusion Criteria • 1) Age ≥18 years; ECOG scoring: 0-3; an expected survival of more than 3 months; • 2) A patient unambiguously diagnosed as having a first occurrence or first recurrence of HLH according to the HLH-2004 criteria; • 3) Other medication for HLH, if any, has been interrupted for 2 weeks or more; it has been 4 weeks or more since major surgery, if any; • 4) Laboratory tests should meet the following: blood routine examination: hemoglobin (Hb)≥60 g/L; absolute neutrophil count (ANC)≥0.5×10^9/L; platelet (PLT)≥30×10^9/L; liver function: serum total bilirubin (TBIL)<171 μmol/L; renal function: serum creatinine (Cr)≤1.5×ULN; blood coagulation function: activated partial thromboplastin time (APTT) and international normalized ratio (INR)≤1.5×ULN; • 5) Female patients should agree to take contraceptive measures (such as intrauterine devices [IUD], contraceptives or condoms) during the study and for at least 6 months after the study; serum pregnancy test results should be negative within 7 days before the study, and the patients must not be breastfeeding; male subjects should agree to take contraceptive measures during the study and for at least 6 months after the study; • 6) Voluntary participation, written informed consent and good compliance. 1.3. Evaluation Method
The therapeutic effect was evaluated by referring to the criteria of “2018 HLH Chinese Expert Consensus”. During induction treatment, it was recommended to evaluate the therapeutic effect every 2 weeks.
1.4. Therapeutic Effects Case 1
(§1) A patient diagnosed with hemophagocytic syndrome was given 20 mg/dose of tablets of the compound of formula II according to the administration regimen described in 1.1. The blood was tested regularly for the plasma concentration. The indexes such as blood routine examination results, biochemical profile and blood coagulation were dynamically monitored, and the patient's condition and vital signs were continuously dynamically monitored closely.
as §1, with “15” for “20”

[1] = Case 2, 15 mg/dose tablets orally twice a day, after one administration cycle

## N#CC[C@H](C1CCCC1)n1cc(-c2ncnc3[nH]ccc23)c(N)n1 [compound of formula II]
Case 1, patient, 20 mg/dose tablets orally twice a day (12 h interval), after one administration cycle (28 days)
  disease status: remained stable
Case 1, patient, 20 mg/dose tablets orally twice a day, after one administration cycle (28 days)
  tolerability of the treatment: tolerable
Case 2, patient, 15 mg/dose tablets orally twice a day (12 h interval), after one administration cycle (28 days)
  disease status: remained stable
[1]
  ferritin level decrease: ≥ 25%
  sCD25 level decrease (factor): 3/2
  therapeutic effect evaluation (2018 HLH Chinese Expert Consensus criteria): partial response
  tolerability of the treatment: tolerable
